melting point: 201 to 202 °C
SMILES: COc1cc(Nc2ncc3c(n2)-c2ccccc2CCC3)cc(OC)c1OC [Example 6, N-(3,4,5-Trimethoxyphenyl)-6,7-dihydro-5H-benzo[6,7]cyclohepta[d]pyrimidine-2-amine]

Reference: US6599908B1, “Fused polycyclic 2-aminopyrimidine derivatives” (Celltech R & D Limited, priority 1996, dated 2003)
